Source: US4914201A, “Indolo[1,2-d][1,4]benzodiazepin-6(7H)-thiones” (Hoechst-Roussel Pharmaceuticals Inc., priority 1989, dated 1990)

Each compound was assayed on 2-phenyl-1,4-benzoquinone-induced writhing in mice (assay: 2-phenyl-1,4-benzoquinone-induced writhing test in mice (analgesia, phenylquinone writhing, PQW)).
Format: in vivo
Text: The compounds of Formula I of the present invention are useful as analgesic agents due to their ability to alleviate pain in mammals. […] Exptl. Biol. Med., 95, 729 (1957)].
For `Cc1nnc2n1-c1ccccc1-c1cc3ccccc3n1C2` [Example 7, 1-Methyl-4H-indolo[1,2-d][1,2,4]triazolo[4,3-a][1,4]benzodiazepine], the “Analgesic PQW, % Inhibition of Writhing at 20 mg/kg., s.c.” value (“Analgesic PQW, % Inhibition of Writhing” for short) was 37%.
In the case of `Cc1nnc2n1-c1ccccc1-c1c(Cl)c3ccccc3n1C2` [Example 8, 10-chloro-1-methyl-4H-indolo-[1,2-d][1,2,4]triazolo[4,3-a]-[1,4]benzodiazepine], the “Analgesic PQW, % Inhibition of Writhing” value is reported as 51%.
In the case of `Cc1nnc2n1-c1ccc(Cl)cc1-c1cc3ccccc3n1C2` [Example 9, 12-Chloro-1-methyl-4H-indolo[1,2-d][1,2,4]triazolo[4,3-a][1,4]benzodiazepine], the “Analgesic PQW, % Inhibition of Writhing” value is reported as 46%.
For `Cc1nnc2n1-c1ccc(Cl)cc1-c1c(Cl)c3ccccc3n1C2` [Example 11, 10,12-Dichloro-1-methyl-4H-indolo[1,2-d][1,2,4]triazolo[4,3-a][1,4]benzodiazepine], the “Analgesic PQW, % Inhibition of Writhing” value was 32%.
